Experimental data published in PubChem BioAssay (NCI).
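Cells were grown in 96-well plates and exposed to each compound for 48 hours at five concentrations; endpoints were interpolated linearly between bracketing concentrations, or set to the highest concentration if not reached. The concentration for full growth arrest is given as TGI.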

Tests used:
Test in all cases: NCI anticancer screen, dose series, 48 h
[1] = tested on: OVCAR-8 ovarian
[2] = tested on: KM20L2 colon
[3] = tested on: XF 498 CNS
[4] = tested on: SK-MEL-2 melanoma
[5] = tested on: SW-620 colon
[6] = tested on: UACC-62 melanoma
[7] = tested on: SK-MEL-28 melanoma
[8] = tested on: SNB-19 CNS
[9] = tested on: DMS 273 small cell lung
[10] = tested on: 786-0 renal
[11] = tested on: HT29 colon
[12] = tested on: TK-10 renal
[13] = tested on: NCI-H23 lung
[14] = tested on: MALME-3M melanoma
[15] = tested on: SK-MEL-5 melanoma
[16] = tested on: NCI-H226 lung
[17] = tested on: HL-60(TB) leukemia
[18] = tested on: HCC-2998 colon
[19] = tested on: KM12 colon
[20] = tested on: HCT-116 colon
[21] = tested on: ACHN renal
[22] = tested on: LXFL 529 NSCLC
[23] = tested on: HCT-15 colon
[24] = tested on: CAKI-1 renal
[25] = tested on: RXF-631 renal
[26] = tested on: DMS 114 small cell lung
[27] = tested on: M14 melanoma
[28] = tested on: CCRF-CEM leukemia
[29] = tested on: SNB-75 CNS
[30] = tested on: UO-31 renal
[31] = tested on: OVCAR-5 ovarian
[32] = tested on: NCI-H522 lung
[33] = tested on: A549 NSCLC
[34] = tested on: SN12C renal
[35] = tested on: M19-MEL melanoma
[36] = tested on: RPMI-8226 leukemia
[37] = tested on: IGROV1 ovarian
[38] = tested on: DLD-1 colon
[39] = tested on: A498 renal
[40] = tested on: MOLT-4 leukemia
[41] = tested on: SF-295 CNS
[42] = tested on: OVCAR-3 ovarian
[43] = tested on: SK-OV-3 ovarian
[44] = tested on: K-562 leukemia
[45] = tested on: COLO 205 colon
[46] = tested on: HOP-62 NSCLC
[47] = tested on: EKVX NSCLC
[48] = tested on: HOP-92 NSCLC
[49] = tested on: SF-539 CNS
[50] = tested on: U251 CNS
[51] = tested on: UACC-257 melanoma
[52] = tested on: OVCAR-4 ovarian
[53] = tested on: SF-268 CNS
[54] = tested on: RXF 393 renal
[55] = tested on: SR leukemia
[56] = tested on: SNB-78 CNS
[57] = tested on: NCI-H460 lung
[58] = tested on: LOX IMVI melanoma
[59] = tested on: HOP-18 NSCLC

Cc1ccccc1N=NC(C(=O)c1ccccc1)C(=O)c1ccccc1
TGI [1]: > 100 µM | TGI [2]: 70.7 µM | TGI [3]: 55.1 µM | TGI [4]: 46.5 µM | TGI [5]: > 100 µM | TGI [6]: 59.7 µM | TGI [7]: > 100 µM | TGI [8]: 85.5 µM | TGI [9]: 62.3 µM | TGI [10]: 78.3 µM | TGI [11]: > 100 µM | TGI [12]: > 100 µM | TGI [13]: 55.2 µM | TGI [14]: > 100 µM | TGI [15]: 55.9 µM | TGI [16]: 32.2 µM | TGI [17]: 37.9 µM | TGI [18]: > 100 µM | TGI [19]: > 100 µM | TGI [20]: 54.4 µM | TGI [21]: > 100 µM | TGI [22]: > 100 µM | TGI [23]: 80.8 µM | TGI [24]: 96.6 µM | TGI [25]: > 100 µM | TGI [26]: 50.7 µM | TGI [27]: 39.1 µM | TGI [28]: 53.9 µM | TGI [29]: 70.5 µM | TGI [30]: 50.2 µM | TGI [31]: 81.2 µM | TGI [32]: 39 µM | TGI [33]: > 100 µM | TGI [34]: 58 µM | TGI [35]: 42.5 µM | TGI [36]: 60.9 µM | TGI [37]: > 100 µM | TGI [38]: > 100 µM | TGI [39]: > 100 µM | TGI [40]: 74.3 µM | TGI [41]: > 100 µM | TGI [42]: > 100 µM | TGI [43]: 88.4 µM | TGI [44]: > 100 µM | TGI [45]: > 100 µM | TGI [46]: 70.6 µM | TGI [47]: 88.3 µM | TGI [48]: 46.4 µM | TGI [49]: 81.8 µM | TGI [50]: > 100 µM | TGI [51]: > 100 µM | TGI [52]: 85.3 µM | TGI [53]: > 100 µM

c1ccc2c(c1)C1=NCCN1c1ccccc1-2
TGI [1]: 11.5 µM | TGI [54]: 6.14 µM | TGI [2]: 14.2 µM | TGI [4]: 8.05 µM | TGI [5]: 11.6 µM | TGI [6]: 13 µM | TGI [7]: 15.2 µM | TGI [8]: 16.2 µM | TGI [9]: 4.88 µM | TGI [10]: 10 µM | TGI [11]: 7.85 µM | TGI [12]: 12 µM | TGI [13]: 6.65 µM | TGI [14]: 6.77 µM | TGI [15]: 6.08 µM | TGI [55]: 2.41 µM | TGI [56]: 18 µM | TGI [17]: 5.17 µM | TGI [18]: 18.8 µM | TGI [19]: 14.6 µM | TGI [20]: 10.4 µM | TGI [21]: 7.36 µM | TGI [22]: 13 µM | TGI [23]: 12.2 µM | TGI [24]: 9.05 µM | TGI [25]: 9.69 µM | TGI [27]: 13.3 µM | TGI [57]: 4 µM | TGI [28]: 5.98 µM | TGI [29]: 14.4 µM | TGI [30]: 18.4 µM | TGI [31]: 15.2 µM | TGI [32]: 3.13 µM | TGI [33]: 27.1 µM | TGI [34]: 9.92 µM | TGI [35]: 11 µM | TGI [36]: 6.97 µM | TGI [37]: 17.2 µM | TGI [38]: 9.02 µM | TGI [39]: 8.82 µM | TGI [40]: 8.99 µM | TGI [41]: 31.4 µM | TGI [58]: 10.4 µM | TGI [42]: 6.82 µM | TGI [43]: 29.9 µM | TGI [45]: 2.77 µM | TGI [46]: 13.3 µM | TGI [47]: 35.5 µM | TGI [48]: 21.7 µM | TGI [59]: 9.19 µM | TGI [49]: 9.69 µM | TGI [50]: 14 µM | TGI [51]: 7.71 µM | TGI [52]: 10.2 µM | TGI [53]: 11 µM
